Assay results from US20120316200A1, “PYRIDONE DERIVATIVES” (Merck Sharp & Dohme Corp., priority 2010, published 2012).

Molecular target: T1, human MCH-1R (Homo sapiens, UniProt Q99705)
T1 construct: expressed in transfected cells; host or cells: CHO-K1 (American Type Culture Collection)
Assay: MCH-1R binding inhibition ([125I]MCH binding to membranes of MCH-1R expression CHO-K1 cells)
Conditions: 50 pM [125I]MCH, membranes of CHO-K1 cells expressing human MCH-1R, 25° C., one hour, pH 7.4; read-out: IC50 (50% inhibition concentration for specific [125I]MCH binding)
Description: A cDNA sequence encoding human MCH-1R [FEBS Letters, Vol. 398, 253 (1996); Biochimica et Biophisica Acta, Vol. 1401, 216 (1998)] was cloned to a plasmid vector pEF/myc/cyto (manufactured by Invitrogen). The obtained expression vector was transfected to a host cell CHO-K1 (American Type Culture Collection) using Lipofectamine Plus reagent (manufactured by Life Technology) to provide MCH-1R expression cells.
Membrane samples prepared from the MCH-1R expression cells were incubated with a test compound and 50 pM [^125I]MCH (manufactured by NEN) in an assay buffer (50 mM Tris buffer containing 10 mM magnesium chloride, 2 mM ethylenediamine tetraacetate, 0.01% bacitracin, and 0.2% bovine serum albumin; pH 7.4) at 25° C. for one hour, followed by filtration through a glass filter GF/C (manufactured by Wattman). The glass filter was washed with 50 mM Tris buffer (pH 7.4) containing 10 mM magnesium chloride, 2 mM ethylenediamine tetraacetate, and 0.04% Tween-20, and then the radioactivity on the glass filter was determined. Non-specific binding was measured in the presence of 1 μM human MCH, and, with respect to each test compound, 50% inhibition concentration (IC50 value) for specific [^125I]MCH binding was determined.

T1 sequence (Q99705 whole entry): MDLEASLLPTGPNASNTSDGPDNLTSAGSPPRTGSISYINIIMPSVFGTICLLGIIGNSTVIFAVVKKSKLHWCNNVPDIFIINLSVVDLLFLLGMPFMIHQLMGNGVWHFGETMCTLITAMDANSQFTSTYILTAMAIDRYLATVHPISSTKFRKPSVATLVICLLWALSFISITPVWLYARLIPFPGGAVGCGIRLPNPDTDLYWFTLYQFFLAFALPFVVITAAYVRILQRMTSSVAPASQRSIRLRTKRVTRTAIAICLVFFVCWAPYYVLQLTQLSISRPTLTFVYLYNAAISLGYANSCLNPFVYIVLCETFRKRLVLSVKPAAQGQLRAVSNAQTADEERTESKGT

| SMILES | IC50 [µM] |
| --- | --- |
| Cc1cc(-n2ccc(OCc3ccc(F)cc3)cc2=O)ccc1OCC(C)(C)O [Example 2, 4-[(4-Fluorobenzyloxy)]-1-[4-(2-hydroxy-2-methylpropoxy)-3-methylphenyl]pyridin-2(1H)-one] | 0.011 |
| Cc1cc(-n2ccc(OCc3ccc(F)cc3)cc2=O)ccc1OCC1(O)CC1 [Example 5, 4-[(4-Fluorobenzyl)oxy]-1-{4-[(1-hydroxycyclopropyl)methoxy]-3-methylphenyl}pyridin-2(1H)-one] | 0.011 |
| CC(C)(CO)COc1ccc(-n2ccc(OCc3ccc(F)cc3)cc2=O)cc1 [Example 6, 4-[(4-Fluorobenzyl)oxy]-1-[4-(3-hydroxy-2,2-dimethylpropoxy)phenyl]pyridin-2(1H)-one] | 0.063 |
| CC(C)(O)c1ccc2cc(-n3ccc(OCc4ccc(F)cc4)cc3=O)ccc2n1 [Example 7, 4-(4-Fluorobenzyloxy)-1-[2-(2-hydroxypropan-2-yl)quinolin-6-yl]pyridin-2-(1H)-one] | 0.038 |
| COc1cc(-n2ccc(OCc3ccc(F)cc3)cc2=O)ccc1OCCC(C)(C)O [Example 8, 4-(4-Fluorobenzyloxy)-1-[4-(3-hydroxy-3-methylbutoxy)-3-methoxyphenyl]pyridin-2-(1H)-one] | 0.084 |
| CC(C)(O)CCOc1ccc(-n2ccc(OCc3ccc(F)cc3)cc2=O)cc1 [Example 9, 4-[(4-Fluorobenzyl)oxy]-1-[4-(3-hydroxy-3-methylbutoxy)phenyl]pyridin-2 (1H)-one] | 0.023 |
| CC(C)(O)COc1ccc(-n2ccc(OCc3ccc(F)cc3)cc2=O)cc1Cl [Example 10, 1-[3-chloro-4-(2-hydroxy-2-methylpropoxy)phenyl]-4-[(4-fluorobenzyl)oxy]pyridin-2(1H)-one] | 0.011 |
| CC(C)(O)COc1ccc(-n2ccc(OCc3ccc(F)cc3)cc2=O)cc1F [Example 12, 4-[(4-fluorobenzyl)oxy]-1-[3-fluoro-4-(2-hydroxy-2-methylpropoxy)phenyl]pyridin-2(1H)-one] | 0.097 |
| Cc1cc(-n2ccc(OCc3ccc(F)cc3)cc2=O)ccc1OCC(=O)OC(C)C [Example 18, propan-2-yl (4-{4-[(4-fluorobenzyl)oxy]-2-oxopyridin-1(2H)-yl}-2-methylphenoxy)acetate] | 0.023 |
| COC(=O)COc1ccc(-n2ccc(OCc3ccc(F)cc3)cc2=O)cc1C [Example 19, methyl (4-{4-[(4-fluorobenzyl)oxy]-2-oxopyridin-1(2H)-yl}-2-methylphenoxy)acetate] | 0.031 |
| COC(=O)COc1ccc(-n2ccc(OCc3ccc(F)cc3)cc2=O)cc1OC [Example 20, methyl (4-{4-[(4-fluorobenzyl)oxy]-2-oxopyridin-1(2H)-yl}-2-methoxyphenoxy)acetate] | 0.061 |
| COc1cc(-n2ccc(OCc3ccc(Cl)cn3)cc2=O)ccc1OC[C@H](O)C1CC1 [Example 21, 4-[(5-chloropyridin-2-yl)methoxy]-1-{4-[(2R)-2-cyclopropyl-2-hydroxyethoxy]-3-methoxyphenyl}pyridin-2(1H)-one] | 0.033 |
| O=c1cc(OCc2ccc(Cl)cn2)ccn1-c1ccc(OC[C@H](O)C2CC2)cc1 [Example 22] | 0.101 |
| COc1cc(-n2ccc(OCc3ccc(Cl)cn3)cc2=O)ccc1OC[C@@H](O)C1CC1 [Example 24, 4-[(5-chloropyridin-2-yl)methoxy]-1-{4-[(2S)-2-cyclopropyl-2-hydroxyethoxy]-3-methoxyphenyl}pyridin-2(1H)-one] | 0.036 |
| O=c1cc(OCc2ccc(Cl)cn2)ccn1-c1ccc(OC[C@@H](O)C2CC2)cc1 [Example 26, 4-[(5-chloropyridin-2-yl)methoxy]-1-{4-[(2S)-2-cyclopropyl-2-hydroxyethoxy]phenyl}pyridin-2(1H)-one] | 0.091 |
